Laboratory results published in patent EP4685142A1, “TRIAZINE COMPOUND AND USE THEREOF” (Chengdu Zenitar Biomedical Technology Co., Ltd., priority 2023, dated 2024).

Target: T1, NLRP3 inflammasome (Homo sapiens, UniProt Q96P20)
T1 construct: host or cells: THP-1 cells
Assay: Inhibitory activity of NLRP3 inflammasome in human monocytes (THP-1 cells, LPS + Nigericin, IL-1β ELISA)
Type: cell-based
Settings: not given
Protocol: 1. Determination of inhibitory activity of NLRP3 inflammasome in human monocytes
Experimental method: THP-1 cells were cultured in RPMI culture medium containing PMA (10 µM), and then inoculated in 48-well plates at a density of 2×10^5 cells/mL, the plates were incubated overnight in a 5% CO2 incubator at 37°C. The next day, the above culture medium was replaced with Opti-MEM culture medium containing 1 µg/mL LPS. After 3 hours, the grown cells were simulated for 40 min with a drug, and then simulated for 40 min with Nigericin (10 µM), and a cell supernatant was harvested for ELISA analysis.
Table 2 Inhibitory activity of NLRP3 inflammasome

T1 sequence (Q96P20 whole entry): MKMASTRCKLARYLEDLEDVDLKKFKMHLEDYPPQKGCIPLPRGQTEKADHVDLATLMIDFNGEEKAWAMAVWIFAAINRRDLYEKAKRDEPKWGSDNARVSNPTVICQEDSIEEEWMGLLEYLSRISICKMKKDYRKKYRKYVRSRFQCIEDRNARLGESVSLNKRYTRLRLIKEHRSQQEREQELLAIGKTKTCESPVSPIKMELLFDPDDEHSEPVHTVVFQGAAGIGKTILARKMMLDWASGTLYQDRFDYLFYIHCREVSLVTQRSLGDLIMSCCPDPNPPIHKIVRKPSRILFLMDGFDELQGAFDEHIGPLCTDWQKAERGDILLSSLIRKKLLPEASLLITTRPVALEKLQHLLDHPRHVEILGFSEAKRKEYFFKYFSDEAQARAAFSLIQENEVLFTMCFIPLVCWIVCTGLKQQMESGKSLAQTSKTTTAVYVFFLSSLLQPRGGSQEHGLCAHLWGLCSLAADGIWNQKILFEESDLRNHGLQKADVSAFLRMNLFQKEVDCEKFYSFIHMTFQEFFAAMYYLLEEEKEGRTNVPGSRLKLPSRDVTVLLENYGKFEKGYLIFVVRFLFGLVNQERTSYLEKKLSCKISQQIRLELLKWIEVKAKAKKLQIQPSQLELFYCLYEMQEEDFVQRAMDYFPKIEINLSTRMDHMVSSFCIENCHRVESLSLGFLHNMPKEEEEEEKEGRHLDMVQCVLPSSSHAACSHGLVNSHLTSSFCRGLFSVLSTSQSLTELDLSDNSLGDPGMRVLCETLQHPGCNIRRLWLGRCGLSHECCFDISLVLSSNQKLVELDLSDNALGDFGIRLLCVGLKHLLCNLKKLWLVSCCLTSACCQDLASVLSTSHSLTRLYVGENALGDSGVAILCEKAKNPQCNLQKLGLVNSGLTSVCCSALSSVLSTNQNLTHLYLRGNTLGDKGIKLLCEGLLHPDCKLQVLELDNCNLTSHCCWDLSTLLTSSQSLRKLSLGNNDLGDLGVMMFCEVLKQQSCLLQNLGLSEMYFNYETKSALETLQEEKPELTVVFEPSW

Row | SMILES | IC50
1 | CN1CCC[C@@H](Nc2nnc(-c3ccc(-c4ccc(F)cc4)cc3O)n(C)c2=O)C1 [Compound 46, (R)-3-(4'-fluoro-3-hydroxy-[1,1'-biphenyl]-4-yl)-4-methyl-6-((1-methylpiperidin-3-yl)amino)-1,2,4-triazin-5(4H)-ketone] | 25.5 nM

Same assay, conditions: THP-1 cells, PMA, LPS 1 µg/mL 3 h, drug 40 min, Nigericin 10 µM 40 min, IL-1β ELISA; read-out: IC50

Row | SMILES | IC50
2 | C#Cc1ccc(-c2nnc(N[C@@H]3CCCN(CCO)C3)c(=O)n2C)c(O)c1 [Compound 26, (R)-3-(4-ethynyl-2-hydroxyphenyl)-6-((1-(2-hydroxyethyl)piperidin-3-yl)amino)-4-methyl-1,2,4-triazin-5(4H)-ketone] | 25.1 nM
3 | [2H]C([2H])([2H])N1CCC[C@@H](Nc2nnc(-c3ccc4sccc4c3O)n(C)c2=O)C1 [Compound 10, (R)-3-(4-hydroxybenzo[b]thiophen-5-yl)-4-methyl-6-((1-(methyl-d3)piperidin-3-yl)amino)-1,2,4-triazin-5(4H)-ketone] | 3.9 nM
4 | C#Cc1ccc(-c2nnc(N[C@@H]3CCCN(CC)C3)c(=O)n2C)c(O)c1 [Compound 25, (R)-6-((1-ethylpiperidin-3-yl)amino)-3-(4-ethynyl-2-hydroxyphenyl)-4-methyl-1,2,4-triazin-5 (4H)-ketone] | 6.7 nM
5 | CN1CCCC2CCN(c3nnc(-c4ccc5sccc5c4O)n(C)c3=O)C21 (stereo not drawn) [Compound 48, 3-(4-hydroxybenzo[b]thiophen-5-yl)-4-methyl-6-(7-methyloctahydro-1H-pyrrolo[2,3-b]pyridin-1-yl)-1,2,4-triazin-5(4H)-ketone] | 18.5 nM
6 | CC#Cc1ccc(-c2nnc(N[C@@H]3CCCN(CCO)C3)c(=O)n2C)c(O)c1 [Compound 29, (R)-6-((1-(2-hydroxyethyl)piperidin-3-yl)amino)-3-(2-hydroxy-4-(prop-1-yn-1-yl)phenyl)-4-methyl-1,2,4-triazin-5(4H)-ketone] | 46.5 nM
7 | CC#Cc1ccc(-c2nnc(N[C@@H]3CCCN(C)C3)c(=O)n2C)c(O)c1 [Compound 27, (R)-3-(2-hydroxy-4-(prop-1-yn-1-yl)phenyl)-4-methyl-6-((1-methylpiperidin-3-yl)amino)-1,2,4-triazin-5(4H)-ketone] | 14.3 nM

Same assay, conditions: read-out: IC50

Row | SMILES | IC50
8 | C[C@H]1CC[C@@H](Nc2nnc(-c3ccc4sccc4c3O)n(C)c2=O)CN1C [Compound 50, 6-(((3R,6S)-1,6-dimethylpiperidin-3-yl)amino)-3-(4-hydroxybenzo[b]thiophen-5-yl)-4-methyl-1,2,4-triazin-5 (4H)-ketone] | 350 nM
9 | [2H]C([2H])([2H])C([2H])([2H])N1CCC[C@@H](Nc2nnc(-c3ccc4c(c3O)CCC4=C(F)F)n(C)c2=O)C1 [Compound 15, (R)-3-(1-(difluoromethylene)-4-hydroxy-2,3-dihydro-1H-inden-5-yl)-6-((1-(ethyl-d5)piperidin-3-yl)amino)-4-methyl-1,2,4-triazin-5(4H)-ketone] | 1.45 nM
10 | CN1CCO[C@H](CNc2nnc(-c3ccc4sccc4c3O)n(C)c2=O)C1 [Compound 34, (R)-3-(4-hydroxybenzo[b]thiophen-5-yl)-4-methyl-6-(((4-methylmorpholino-2-yl)methyl)amino)-1,2,4-triazine-5(4H)-ketone] | 75 nM
11 | CCN1CCC[C@@H](Nc2nnc(-c3ccc(C#CC4CC4)cc3O)n(C)c2=O)C1 [Compound 45, (R)-3-(4-(cyclopropylethynyl)-2-hydroxyphenyl)-6-((1-ethylpiperidin-3-yl)amino)-4-methyl-1 ,2,4-triazin-5(4H)-ketone] | 345 nM
12 | CN1CCC[C@@H](Nc2nnc(-c3ccc4sccc4c3O)n(C3CC3)c2=O)C1 [Compound 21, (R)-4-cyclopropyl-3-(4-hydroxybenzo[b]thiophen-5-yl)-6-((1-methylpiperidin-3-yl)amino)-1,2,4-triazin-5(4H)-ketone] | 3.51 nM
13 | [2H]C([2H])([2H])C([2H])([2H])N1CCC[C@@H](Nc2nnc(-c3ccc4ccccc4c3O)n(C)c2=O)C1 [Compound 7, (R)-6-((1-(ethyl-d5)piperidin-3-yl)amino)-3-(1-hydroxynaphthalen-2-yl)-4-methyl-1,2,4-triazi n-5(4H)-ketone] | 22.1 nM
14 | CCN1CCC[C@@H](Nc2nnc(-c3ccc4ccccc4c3O)n(C)c2=O)C1 [Compound 19, (R)-6-((1-ethylpiperidin-3-yl)amino)-3-(1-hydroxynaphthalen-2-yl)-4-methyl-1,2,4-triazin-5(4H)-ketone] | 19.1 nM
15 | C[C@@H]1[C@H](Nc2nnc(-c3ccc4sccc4c3O)n(C)c2=O)CCCN1C [Compound 49, 6-(((2R,3R)-1,2-dimethylpiperidin-3-yl)amino)-3-(4-hydroxybenzo[b]thiophen-5-yl)-4-methy 1-1,2,4-triazin-5(4H)-ketone] | 8.12 nM
16 | CC#Cc1ccc(-c2nnc(N[C@@H]3CCCC[C@H]3O)c(=O)n2C)c(O)c1 [Compound 32, 3-(2-hydroxy-4-(prop-1-yn-1-yl)phenyl)-6-(((1R,2R)-2-hydroxycyclohexyl)amino)-4-methyl-1,2,4-triazin-5(4H)-ketone.] | 8.53 nM
17 | CN1CCC[C@@H](Nc2nnc(-c3ccc(C4CC4)cc3O)n(C)c2=O)C1 [Compound 39, (R)-3-(4-cyclopropyl-2-hydroxyphenyl)-4-methyl-6-((1-methylpiperidin-3-yl)amino)-1,2,4-tri azin-5(4H)-ketone] | 30 nM
18 | Cn1c(-c2ccc3ccccc3c2O)nnc(N[C@@H]2CCCC[C@H]2O)c1=O [Compound 33, 6-(((1R,2R)-2-hydroxycyclohexyl)amino)-3-(1-hydroxynaphthalene-2-yl)-4-methyl-1,2,4-tria zine-5(4H)-ketone] | 12.5 nM
19 | CC#Cc1ccc(-c2nnc(N[C@@H]3CCCN(CC)C3)c(=O)n2C)c(O)c1 [Compound 28, (R)-6-((1-ethylpiperidin-3-yl)Jamino)-3-(2-hydroxy-4-(prop-1-yn-1-yl)phenyl)-4-methyl-1,2,4-triazin-5(4H)-ketone] | 29.6 nM
20 | CN1CCC[C@@H](Nc2nnc(-c3ccc(C#CC4CC4)cc3O)n(C)c2=O)C1 [Compound 44, (R)-3-(4-(cyclopropylethynyl)-2-hydroxyphenyl)-4-methyl-6-((1-methylpiperidin-3-yl)amino) -1,2,4-triazin-5(4H)-ketone] | 80 nM
21 | CCN1CCC[C@@H](Nc2nnc(-c3ccc(C4CC4)cc3O)n(C)c2=O)C1 [Compound 11, (R)-3-(4-cyclopropyl-2-hydroxyphenyl)-6-((1-ethylpiperidin-3-yl)amino)-4-methyl-1,2,4-triaz in-5(4H)-ketone] | 6.5 nM
22 | CCN1CCC[C@@H](Nc2nnc(-c3ccc4sccc4c3O)n(C3CC3)c2=O)C1 [Compound 22, (R)-4-cyclopropyl-6-((1-ethylpiperidin-3-yl)amino)-3-(4-hydroxybenzo[b]thiophen-5-yl)-1,2,4-triazin-5(4H)-ketone] | 2.57 nM
23 | CN1CCC[C@@H](Nc2nnc(-c3ccc4ccccc4c3O)n(C)c2=O)C1 [Compound 18, (R)-3-(1-hydroxy-2-naphthyl)-4-methyl-6-((1-methylpiperidin-3-yl)amino)-1,2,4-triazin-5(4H )-ketone] | 25 nM
24 | C#Cc1ccc(-c2nnc(N[C@@H]3CCCC[C@H]3O)c(=O)n2C)c(O)c1 [Compound 31, 3-(4-ethynyl-2-hydroxyphenyl)-6-(((1R,2R)-2-hydroxycyclohexyl)amino)-4-methyl-1,2,4-tria zin-5(4H)-ketone] | 3.64 nM
